This note sets out measurements from US11938228B2, “Particle-based multi-layer therapeutic delivery device and method” (Privo Technologies, Inc., priority 2017, dated 2024).

Series [1] can be described thus: permeation of fluorescent dye from two-layer device into buccal tissue (fluorescence microscopy). The class given is in vitro ADME. The note with it: lamb buccal tissue, multi-layer device. From the text:
FIG. 2 is an image of an example multi-layered device according to example embodiments of the present invention. The device features two layers: one top layer including fluorescein isothiocyanate (FITC), a fluorescent dye which fluoresces green when examined under a fluorescent microscope, and one bottom layer including cyanine 5 (Cy5), a fluorescent dye which fluoresces red when examined under a fluorescent microscope.
FIGS. 5A-5C show three images taken from lamb buccal tissue at different time points.
In another representative embodiment, a multi-layered device may be used for the delivery of multiple agents over a prolonged period of time (FIG. 4, FIG. 5). If the example of mucositis is again used, multiple layers may include a pain mitigator in free form, a pain mitigator encapsulated within particles and an agent for the treatment of mucositis encapsulated within particles. The initial freeform layer is able to provide immediate pain relief, and the subsequent particle-encapsulated layers are capable of delivering particles beneath the tissue, where they further release their agents over a period of days, providing longer-term pain relief and treatment. FIG. 4 and FIG. 5 illustrate this effect. Fluorescence was used in order to provide detection. […]

Series [2] in a line: release profile of encapsulated agent from chitosan particles (atomic absorption spectrometry). The note with it: over 60 hours; particles with average diameter 500 to 2000 nm; detection by AAS. Format: physicochemical. From the text:
FIG. 1 is a graph showing the release profile of one embodiment of particles having an average diameter in the range of 500 to 2000 nm which may be included within a multi-layered device according to embodiments of the present invention. […] Cisplatin was used for this experiment due to its use in the treatment of oral cancer and its ease of detection via atomic absorption spectrometry (AAS).
FIG. 1 is a graph showing the release profile of example particles having an average diameter in the range of 500 to 2000 nm. […] Cisplatin was used for this experiment due to its use in the treatment of oral cancer and its ease of detection via atomic absorption spectrometry (AAS).

As for fluorescein isothiocyanate [FITC], the results for the permeation into tissue entry in series [1] (after 30 minutes) and in series [1] (after 1 hour) were “beginning to permeate the tissue” and “permeating deeper into the tissue”, respectively. Regarding `N.N.[Cl][Pt][Cl]` [cisplatin], the “cisplatin released from particles” value in series [2] was determined as 45%.
